The test system of one experiment is AMPK, ACC. As to the kind of experiment: AMPK and ACC phosphorylation in HepG2 cells (Western blot). The format is cell-based, human. On the procedure: Cells were lysed in SDS sample buffer (62.5 mM Tris HCl (pH 6.8), 6% (w/v) SDS, 30% glycerol, 125 mM DTT, and 0.03% (w/v) bromophenol blue). The total cell lysates were boiled at a temperature of 100° C. for 5 min and electrophoresed on a sodium dodecyl sulfate-polyacrylamide gel, and proteins were transferred on a nitrocellulose membrane. The membrane was reacted in TBS (5% (w/v) milk and 0.1% Tween 20) for 1 hour, and then reacted with primary antibodies for 2 hours. Next, the membrane was developed using HRP-conjugated secondary antibodies (Phototope-HRP Western Blot Detection Kit, New England Biolabs, Beverly, Mass.).
HepG2 (human hepatoma cell line), HEK293 (Human embryonic kidney cell line), and C2C12/L6 myoblasts were purchased from American Type Culture Collection (ATCC, Manassas, Va., USA). LKB−/− MEFs were purchased from R.A. DePinho. Rat ventricular myocytes were enzymatically isolated from the heart of adult […] by a known method. Phosphorylation of AMPK (Thr172) and ACC (Ser79) was measured by Western blot analysis using Cell Signaling Technologies and pan- and phospho-specific antibodies (Upstate Biotechnology, Inc., Lake Placid, N.Y.).
This Example was carried out to confirm whether an NQO1 activator has effects through NQO1 on phosphorylation of AMPK and ACC that are intracellular energy-regulating proteins. In order to examine phosphorylation of AMP kinase and ACC (acetyl-CoA carboxylase) by the NQO1 activator pyrano-1,2-naphthoquinone, HepG2 cells (Human hepatoma cell line) were seeded onto a 6-well plate at a density of 1×10^5 cells per well, and cultured in a RPMI+10% FBS medium. After growing the cells for 24 hours, the culture medium was replaced with a serum-free RPMI medium and cells were treated with pyrano-1,2-naphthoquinone (10 μM) for 30 min, 1 hr, 2 hrs, 4 hrs and 6 hrs, in combination with a control (DMSO). Anti-ACC and Anti-pS79-ACC were used to observe phosphorylated ACC, whereas Anti-AMPK and Anti-pT172-AMPK were used to observe phosphorylated AMP kinase.
In order to investigate the importance of an NQO1 protein in phosphorylation of AMP kinase, HepG2, MCF-7 and HEK293 cells were seeded onto 60 mm plates at a density of 1×10^6 cells/plate. After growing the cells for 24 hours, the culture medium was replaced with a serum-free medium, and cells were treated with pyrano-1,2-naphthoquinone (10 μM) for 30 min, respectively, in combination with a control group (DMSO). Cells were lysed in RIPA buffer and amounts of all proteins were quantified using a spectrophotometer, and 50 μg of the protein was subjected to electrophoresis. AMP kinase phosphorylation was examined using Anti-AMPK and Anti-pT172-AMPK, whereas the NQO1 protein was assayed using Anti-NQO1. […]
(A western blot detects proteins with antibodies after separation by electrophoresis.)

Experiment [1] in a line: body weight, dietary intake, fat and tissue histology in C57BL/6 DIO mice. It is filed as in vivo, mouse. On the procedure: The removed tissues were cut into a proper size, fixed in 10% formalin, washed with water, and embedded in paraffin to prepare blocks, according to a conventional method. The thus-prepared blocks were sectioned into a 4 μm thickness and subjected to hematoxylin and eosin (H&E) staining for observation of general changes.
For observation of cellular microstructures, the removed tissues were sliced into a size of 1 mm^3, pre-fixed in 2.5% glutaraldehyde (0.1M PBS, pH 7.4, 4° C.) for 2 to 4 hours, washed, and post-fixed in a 1% osmium tetroxide solution for 2 hours. Then, according to a conventional method, the tissues were dehydrated with serial concentrations of ethanol and the solvent was replaced with propylene oxide. The tissues were embedded in an epoxy resin mixture, and the embedded tissues were subjected to thermal polymerization to prepare blocks. The thus-prepared blocks were sectioned into a thickness of 0.5 to 1 μm using a ultramicrotome and stained with toludine blue. Observation sites were selected under a light microscope and the tissues were ultrasectioned to a thickness of 60 to 70 nm. The ultrasectioned specimens were subjected to dual staining of uranyl acetate and lead citrate and were observed under a transmission electron microscope (H-600, Hitachi, Japan) at an accelerating voltage of 75 kV.
Cryosectioned tissues were sectioned into a thickness of 5 μm, dried in air for 1 hour and reacted in a filtered 0.5% oil red 0 solution for 20 min. The tissue sections were washed with tap water, subjected to double staining with Gill hematoxylin for 20 to 30 sec, water-washed, and observed.
Adipose tissues were sectioned into a thickness of 3 μm, deparaffinized, exposed to antigens in a citrate buffer under high pressure for 4 min and washed. The mixture was reacted in a 3% hydrogen peroxide solution for 10 min, and the reaction product was washed three times with a TBST solution for 3 min. The product was reacted with primary antibodies (guinea pig, anti-perilipin) against 200-fold diluted perilipin for 1 hour and washed with a TBST solution. Secondary antibodies (donkey anti-guinea pig, cy3-conjugated) were added and reacted with the product for 30 min. The reaction product was washed three times with a TBST solution for 3 min, mounted with Fluormount G and then observed under a fluorescence microscope.
Animals were continuously fed high-fat diet pellets for 3 to 4 weeks, thereby establishing DIO mice. Mice were raised in a breeding room with a 12 h/12 h light/dark D) cycle. Animals were divided into three groups, i.e., a group with administration of physiological saline (n=3), a group with administration of a vehicle (n=5) and a group with administration of 50 mg/kg of a candidate compound (n=7). Samples were orally administered to animals every day. On Days 7, 28 and 56, each tissue was removed, frozen in liquid nitrogen, and stored at […] for short and long periods of time.
All experimental animal procedures were performed according to a guideline of Institutional Animal Care and Use Committee, Chungnam National University School of Medicine. OLETF rats were purchased from Otsuka Research Institute. Male ob/ob and C57BL/6 mice were purchased from Jackson Laboratory. Animals were housed in a breeding room maintained at a constant temperature of […] and a 12 h/12 h light/dark (L/D) cycle. 4-week-old C57BL/6 male mice were fed ad libitum high fat diet (HFD, 24% (w/w) and 45% calories as fat, Research Diets Inc., New Brunswick, N.J. 08901, US) for 7 weeks. Mouse groups were divided into an untreated group, a vehicle-treated group (calcium silicate), a pair-fed group and a candidate compound-treated group (calcium silicate-coated […] nanoparticles). Body weight and dietary intake of animals were daily measured. Upon completion of experiments, some mice of each group were anesthetized and received MRI examinations. The remaining mice of the groups were anatomized and tissue weight thereof was measured. […]

The structures appear in SMILES notation. Bounds are passed on as bounds.

In the case of `CC1(C)CCC2=C(O1)c1ccccc1C(=O)C2=O` [βL, 2,2-Dimethyl-3,4-dihydro-2H-benzo[h]chromene-5,6-dione], in the experiment with AMPK, ACC (HepG2, 10 μM), the “duration of AMP kinase phosphorylation effects” value is “up to 6 hours”, the “initial time point at which phosphorylation of AMP kinase was observed” value worked out at 30 min and the “phosphorylation of ACC” value is listed as “also phosphorylated”. In the experiment on AMPK, ACC (HepG2 cells), the “ACC phosphorylation and AMPK phosphorylation/activation” value is “accelerates”. In experiment [1] (C57BL/6 DIO mice, 56 days), the “EM of liver tissues” value was “remarkably decreased fat vacuoles and glycogen stores”; the “accumulated fat in the liver (oil red O staining), diminished compared to control” value was not below 90%; the “visceral fat and body weight” value was “conspicuous decreases”. The “amounts of subcutaneous, mesenteric, perirenal and gonadal fats” value in experiment [1] (C57BL/6 DIO, first four weeks of 56 days) is given as “gradually decreased”. In experiment [1] (DIO mice), the “number of type 1 myofibers in the soleus muscle” value is “increased”. Besides, in experiment [1] (Day 56, 50 mg/kg daily oral), the “size of adipocytes, brown adipose tissues (H&E staining, EM)” value is “remarkably decreased” and the “size of adipocytes, gonadal adipose tissues (perilipin staining)” value is reported as “remarkably decreased”. The body weight entry in experiment [1] (obese mice on high-fat diet, 50 mg/kg daily oral, 56 days) is reported as “continuous weight loss for 56 days”. The dietary intake entry in experiment [1] (obese mice, 50 mg/kg daily oral, 56 days) is listed as “decreases in dietary intake for the first two weeks”. Further, the “muscle mitochondria (EM)” value in experiment [1] (βL-treated DIO mice and ob/ob mice) was “normal morphology and increased numbers of mitochondria”.
